# Reference: patent publication US12098136B2, “Crystalline forms of lenalidomide” (BIOCON LIMITED, priority 2017, dated 2024)
# How the values were obtained:
# [1] = Hygroscopicity / weight change; type: physicochemical
# Thermal stability (neat) = type: physicochemical
# Mouse = settings: in vivo; cited from earlier work
SMILES,weight change [1],Hygroscopicity ([1]; compared with Lenalidomide hemihydrate),thermally stable up to (temperature) (Thermal stability (neat)),Acute oral toxicity (LD50) (Mouse)
Nc1cccc2c1CN(C1CCC(=O)NC1=O)C2=O (stereo not shown) [Lenalidomide-Resorcinol co-crystal],does not exhibit significant weight change,lesser or comparable,≥ 80 °C,–
O=C1NS(=O)(=O)c2ccccc21 [Saccharin],–,–,–,17000 mg/kg
